The source of these data is patent US5194586A, “Anti-ATLA antibody binding peptides” (Kuraray Co., Ltd., priority 1989, dated 1993).

The subject of this assay is anti-ATLA antibody. Briefly: ELISA of Example 24: single peptides and 1:1 mixture, dried stored cups. The class given is binding, human. To be noted: for OD492: listed as Ex. 9. As for the experimental part:
Each serum specimen was assayed for the presence of the anti-ATLA antibody by the following ELISA in which an absorbance was measured.
The peptide prepared in Example 1 or the peptide prepared in Reference Example 9 were each dissolved in 0.01M carbonate buffer (pH 9.5) to prepare a solution containing each peptide. In addition, a solution containing both peptides was prepared by mixing the above two solutions at a concentration ratio of 1:1 (the former:the latter). Each 100 μl of the resulting peptide solutions was added to a cup for ELISA made of polystyrene (the same as mentioned above) and the mixture was allowed to stand at 4° C. overnight so that the peptide is coated on the cup. After removing the peptide solution in these cups, to each cup was added PBS (200 μl ) containing 20% by volume of normal goat serum and the mixture was allowed to stand at room temperature for 3 hours to block non-specific protein binding sites. After removing the blocking solution in the cups, the cups were dried and stored at 4° C.
Using PBS containing 10% by volume of normal goat serum and 0.05% by volume of Tween 20 as a diluent, the diluent and each serum specimen (15 specimens of the ATLV-carrier serum and 15 specimens of the normal human serum) was mixed at a ratio of 20:1 (diluent:specimen; v/v) and each 100 μl of the resulting diluted serums was added to above each assay cup. After incubation at 37° C. for 1 hour, the cups were washed with PBS containing 0.05% by volume of Tween 20 (×3) and then with PBS (×1).
To each resulting assay cup was added PBS containing horseradish peroxidase conjugated goat anti-human IgG antibody (diluted at an optimal concentration with PBS containing 10% by volume of normal goat serum and 0.2% by volume of Tween 20; 100 μl ). After incubation at 37° C. for 30 minutes, these cups were washed with PBS containing 0.05% by volume of Tween 20 (×3) and then with PBS (×1). […] After the mixtures were allowed to stand at room temperature for 15 minutes, to each mixture was added 1N sulfuric acid (100 μl) to stop the reaction and an absorbance at 492 nm (OD492) of each reaction solution was measured.
Cutoff value was determined using the OD492 values of the fifteen normal human serums and used for determination as to whether the specimens are positive or negative for the anti-ATLA antibody. The cutoff value was calculated by the equation: cutoff value = ((mean value of OD492 values of the normal human serum) +2SD). When the presence of the anti-ATLA antibody in each serum specimen was assayed using this cutoff value, all ATLV-carrier serums were determined to be positive and all normal human serums were determined to be negative.
For orientation: An ELISA detects its analyte on a solid surface through an enzyme-linked reagent.

“And” between values parts separate entries of the source, which are not always exact repeats. Equal entries are not always repeated.

In the case of “Example 9: peptide (I), X is -Lys-Lys-Lys-, A is the env peptide fragment (A-3); SEQ ID NO: 14 (KKKFLNTEPSQLPPTAPPLLPHSNLDHI)”, the OD492 is, setting by setting: (ATLV-carrier serum, individual specimens No. 1-15, diluent:specimen 20:1) 0.873 and 0.973 and 1.405 and 0.099 and 1.623 and 1.437 and 0.137 and 0.088 and 0.111 and 1.029 and 1.071 and 1.156 and 1.061 and 0.549 and 1.478; (normal human serum, individual specimens No. 1-15) 0.078 and 0.062 and 0.040 and 0.089 and 0.133 and 0.103 and 0.099 and 0.083 and 0.151 and 0.065 and 0.093 and 0.097 and 0.100 and 0.094 and 0.154. The Cutoff value (mean OD492 of the normal human serum + 2SD) is listed as 0.158. The “Mean OD492” value (mean of the fifteen normal human serums) is 0.096.
